Test results published in patent US5064817A, “Phospholipase A2 inhibiting compositions and their use” (Yissum Research Development Company of Hebrew University of …, priority 1987, dated 1991).
Several values for one entry are separate records, joined by “and”; a condition that tells them apart may be missing. Equal entries are not always repeated. Values belong to the substance of their own block, whether it stands above or below them.

Tests used:
[1] = tested on: crude phospholipase A2 (extracted from human polymorphonuclear leukocytes); assay: Inhibition of phospholipase A2 from human PMN leukocytes (14C-oleate-labelled E. coli substrate); assay type: biochemical; settings: 37°, 60 min, pH 7.0, 0.5 mmol/l CaCl2
Description: The reaction is stopped by extraction with modified Dole reagent. Free oleic acid is separated on a disposable silicic acid (Kieselgel G 100) column and the radioactivity is determined. Percent inhibition is calculated after subtracting a blank (assay mixture without enzyme).

[2] = tested on: Prostaglandin (PGE2) production in mouse peritoneal macrophages; assay: Inhibition of PGE2 production in mouse peritoneal macrophages; assay type: cell-based; settings: 10^-5 M phorbol-myristate-acetate, 2 hours, repeated lines per PLI type
Description: Peritoneal cells from NMRI mice were obtained by lavage with Dulbeccos MEM. The cells were washed and plated at 2×10^4 /well in Dulbeccos MEM with FCS in 96-well plates. After 2 hours (or overnight) incubation at 37°, the adherent macrophages were washed 3 times. The medium was replaced by Dulbeccos MEM with lactalbumin hydrolysate. Test compounds were suspended in water. One hour later, the macrophages were stimulated with 10^-5 M phorbol-myristate-acetate. Another 2 hours later, PGE2 and LTC4 were measured int he supernatants by radioimmunoassay. The results are expressed as IC50 of PGE2 - and LTC4 -production.

[3] = tested on: human platelet aggregation; assay: Inhibition of human platelet aggregation in platelet-rich plasma; assay type: cell-based; settings: human PRP
Description: (§1) Platelet-rich plasma (PRP) was obtained from human donors by centrifugation. Platelet aggregation at 37° C. and TXB2 secretion were induced by the addition of an aggregating agent (inducer) as indicated in the table below. Platelet aggregation was determined by measurement of the suspension optical density in a double beam aggregometer. Results are expressed as % of the control aggregation obtained by the addition of the inducer in the absence of an inhibitor. TXB2, secretion to the extracellular medium, was determined by radioimmunoassay. When the test PLI was applied, the PRP was incubated with the inhibitor for 10 min at 37° C., prior to induction of aggregation.

[4] = tested on: PLA2-oedema (purified phospholipase A2 from porcine pancreas, subplantar); assay: Inhibition of PLA2-oedema in rats (paw plethysmometry); assay type: in vivo; settings: rat
Description: By subplantar injection of 200 U PLA2 (ca. 0.3 mg purified phospholipase A2 from porcine pancreas, Boehringer Mannheim) in 100 μl physiological saline into the left hind paw of male or female rats (LEW/TIF, ca. 200 g body weight, 5 animals per group) a localized edema was induced and its intensity was determined plethysmometrically 3 and 5 hours later. Test compounds were suspended in 0.75% methylcellulose and administered i.p. (5 ml/kg) 1 hour prior to the PLA2 injection. The edema-inhibiting effect was expressed as percent inhibition in comparison to vehicle-treated controls.

[5] = tested on: Thromboxane (TXB2) secretion by human platelets; assay: Inhibition of thromboxane (TXB2) secretion by human platelets; assay type: cell-based; settings: human PRP
Description: as §1

[6] = tested on: prostacyclin (6-keto-PGF1 α) production in cultured adrenal capillary endothelial cells; assay: Inhibition of prostacyclin production in endothelial cells; assay type: cell-based; settings: for % Inhibition of prostacyclin production: PLI 1 mg/ml + Bradykinin 1 μM; for 6-keto-PFG1α PROD.: PLI 1 mg/ml + Bradykinin 1 μM (Bradykinin alone 201.9 ± 21.6)
Description: Method: Cultured adrenal capillary endothelial cells were stimulated to produce prostacyclin (6-keto-PGF1 α) by bradykinin in the absence and presence of CMS or HME. The prostacyclin, secreted to the culture medium was determined by radioimmunoassay.

[7] = tested on: Serotonin secretion in Rat Basophilic Leukemia (RBL) cells; assay: Inhibition of serotonin secretion in RBL cells; assay type: cell-based; settings: HMS 1.5 mg/ml, ionophore A23187 0.3 μM
Description: Cultured RBL were incubated with tritiated serotonin (10^7 DPM/ml/10^6 cell) for 2 hours, then washed. Serotinin secretion was activated in the absence or presence of HMS (1.5 mg/ml) by the addition of the ionophore A23187 (0.3 μM) for the desired time. The radioactive serotonin accumulated in the culture medium during the activation period was determined. In the absence of HMS, approximately 1.3 and 1.9 DPM×10^5 was excreted in 15 and 30 minutes, respectively, whereas in the presence of the HMS, only about 0.3 DPM×10^5 was secreted in each of these time periods.

[8] = tested on: Phospholipase A2 (PLA2) activity in Rat Basophilic Leukemia (RBL) cells; assay: Inhibition of PLA2 activity in RBL cells (C6-NBD-PC hydrolysis); assay type: cell-based
Description: Cultured RBL cells were incubated with the fluorescent substrate of PLA2 (C6 -NBD-PC) as described by Yedgar et al. (1986) FEBS Letters, 200:165-168. After 1 hour of incubation, the cultures were subjected to lipid extraction and determination of C6 -NBD-PC hydrolysed as previously described.

[9] = tested on: adjuvant arthritis (Freunds adjuvant paw swelling); assay: Adjuvant arthritis model of inflammation; assay type: in vivo, rat; settings: for gross signs of toxicity: 70 mg/kg subcutaneously, two week dosing period; for paw diameter (measured with calipers): arthritic animals, by day 14; for paw diameter (measured with calipers) / decrease in paw swelling, injected paw / decrease in paw swelling, noninjected paw: 70 mg/kg subcutaneously day 3 to day 14; for decrease in paw swelling, injected paw / decrease in paw swelling, noninjected paw: arthritic rats, day 14
Description: Two compounds (CMS and HMS) were tested in the adjuvant arthritis model of inflammation. Paw swelling is induced by an injection of Freunds adjuvant into the right hind paw. Systemic inflammation spreads to the controlateral paw within 2 weeks. The compounds were administered subcutaneously from day 3 to day 14 at a dose of 70 mg/kg. […] CMS decreased noninjected paw swelling 51% (P≤0.005) and injected paw swelling 30% (P≤0.001). […] No drug treated group lost weight compared to the arthritic controls.

[10] = line (e), 1 × i.p., dose not given
[11] = 100 mg/kg i.p., 1 hour prior to PLA2
[12] = 1 × 20 mg/kg i.p., 1 hour prior to PLA2
[13] = Epinephrine 0.8 μg/ml, PLI 1.5 mg/ml

Inhibition of PLA2 from human PMN, IC50 [1]: 720 µg/mL
IC50 for PGE2 production [2]: 300 µg/mL and 600 µg/mL
Substance: Dextranhydrazide-dodecanedioic-phosphatidylserine [Dex-Ac-PS, reference compound]
Aggregation (% of control) ([3]; ADP 2 μg/ml, PLI 3.0 mg/ml): 14 % of control
Aggregation (% of control) ([3]; Epinephrine 0.8 μg/ml, PLI 6.5 mg/ml): 19 % of control

Substance: Hemaccellphosphatidylethanolamine [HME]
% Inhibition of PLA2-oedema, 3 hours [4, 10]: 0%
% Inhibition of PLA2-oedema, 5 hours [4, 10]: 0%
% Inhibition of PLA2-oedema, 3 hours ([4]; line (f), i.p., dose not given): 27%
% Inhibition of PLA2-oedema, 5 hours ([4]; line (f), i.p., dose not given): 25%
% Inhibition of PLA2-oedema, 3 hours ([4]; line (g), i.p., dose not given): 53%
% Inhibition of PLA2-oedema, 5 hours ([4]; line (g), i.p., dose not given): 45%
Aggregation (% of control) ([3]; ADP 2 μg/ml, PLI 0.70 mg/ml): 6 % of control
Aggregation (% of control) ([3]; Collagen 40 μg/ml, PLI 0.85 mg/ml): 13 % of control
Aggregation (% of control) ([3]; Epinephrine 0.8 μg/ml, PLI 0.75 mg/ml): 9 % of control
TXB2 secreted ([5]; ADP 2 μg/ml, PLI 0.70 mg/ml (without PLI 82 ± 4)): 14 ± 7 ng/mL
TXB2 secreted ([5]; Collagen 40 μg/ml, PLI 0.85 mg/ml (without PLI 42 ± 6)): 17 ± 7 ng/mL
% Inhibition of prostacyclin production [6]: 82%
6-keto-PFG1α PROD. [6]: 36.4 ± 7.2 PG/10^-6 Cells

Substance: Hemaccellphosphatidylserine [HMS]
Inhibition of PLA2 from human PMN, IC50 [1]: 57 µg/mL
% Inhibition of PLA2-oedema, 3 hours [4, 11]: 63%
% Inhibition of PLA2-oedema, 5 hours [4, 11]: 80%
% Inhibition of PLA2-oedema, 3 hours [4, 12]: 36%
% Inhibition of PLA2-oedema, 5 hours [4, 12]: 62%
IC50 for PGE2 production [2]: > 100 µg/mL
radioactive serotonin secreted to culture medium ([7]; 15 minutes (without HMS approx. 1.3)): about 0.3 DPM×10^5
radioactive serotonin secreted to culture medium ([7]; 30 minutes (without HMS approx. 1.9)): about 0.3 DPM×10^5
C6-NBD-PC hydrolysed ([8]; HMS 0.5 mg/ml (control 1.42 ± 0.19)): 0.37 ± 0.04 nmole/mg cell protein-hour
C6-NBD-PC hydrolysed ([8]; HMS 1.5 mg/ml (control 1.42 ± 0.19)): 0.11 ± 0.07 nmole/mg cell protein-hour
Aggregation (% of control) ([3]; Epinephrine 0.8 μg/ml, PLI 1.2 mg/ml): 2 % of control
gross signs of toxicity [9]: no gross signs of toxicity
paw diameter (measured with calipers) [9]: significantly decreased
decrease in paw swelling, injected paw [9]: 19%
decrease in paw swelling, noninjected paw [9]: 43%

Substance: alginic acid phosphatidylethanolamine [ALE]
Aggregation (% of control) ([3]; Epinephrine 0.8 μg/ml, PLI 0.7 mg/ml): 9 % of control

Substance: alginic acid phosphatidylserine [ALS]
Aggregation (% of control) [3, 13]: 5 % of control

Substance: carboxymethylcellulose phosphatidylethanolamine [CME]
Aggregation (% of control) [3, 13]: 0 % of control

Substance: carboxymethylcellulosephosphatidylserine [CMS]
Inhibition of PLA2 from human PMN, IC50 [1]: 40 µg/mL
% Inhibition of PLA2-oedema, 3 hours [4, 11]: 51%
% Inhibition of PLA2-oedema, 5 hours [4, 11]: 54%
% Inhibition of PLA2-oedema, 3 hours [4, 12]: 15%
% Inhibition of PLA2-oedema, 5 hours [4, 12]: 29%
IC50 for PGE2 production [2]: 100 µg/mL and > 100 µg/mL
Aggregation (% of control) [3, 13]: 0 % of control
% Inhibition of prostacyclin production [6]: 61%
6-keto-PFG1α PROD. [6]: 78.7 ± 6.8 PG/10^-6 Cells
gross signs of toxicity [9]: no gross signs of toxicity
paw diameter (measured with calipers) [9]: significantly decreased
decrease in paw swelling, injected paw [9]: 30%
decrease in paw swelling, noninjected paw [9]: 51%
